Data reported in patent US8802597B2, “Herbicidal pyrimidines” (E I du Pont de Nemours and Company, priority 2003, dated 2014).

Columns and labels:
Type in all cases: in vivo
[1] = test system: chickweed (Stellaria media); assay: Test C postemergence
In short: (§1)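 Injury scored visually 12–14 days after application on 0–100 scale (100 = complete control), relative to controls. Compounds, formulated with surfactant in non-phytotoxic solvent, applied to soil at planting (pre) or to 1- to 4-leaf plants 2–18 cm tall (post) in greenhouse.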

[2] = test system: yellow nutsedge (Cyperus esculentus); assay: Test C pre/postemergence; conditions: for Plant response rating (scale of 0 to 100), Nutsedge, Yellow / Nutsedge, Yellow plant response rating: Postemergence; for Nutsedge, Yellow plant response rating: scale 0 to 100 (0 no effect, 100 complete control); for Plant response rating, Nutsedge, Yellow: Preemergence
In short: as §1

[3] = test system: common (oilseed) sunflower (Helianthus annuus); assay: Test C pre/postemergence; conditions: Preemergence
In short: as §1

[4] = test system: morningglory (Ipomoea coccinea); assay: Test C pre/postemergence; conditions: for Morningglory plant response rating: scale 0 to 100 (0 no effect, 100 complete control); for Plant response rating, Morningglory: Preemergence
In short: as §1

[5] = test system: woolly cupgrass (Eriochloa villosa); assay: Test C pre/postemergence; conditions: for Plant response rating (scale of 0 to 100), Cupgrass, Woolly / Cupgrass, Woolly plant response rating: Postemergence; for Cupgrass, Woolly plant response rating: scale 0 to 100 (0 no effect, 100 complete control); for Plant response rating, Cupgrass, Woolly: Preemergence
In short: as §1

[6] = test system: soybean (Glycine max); assay: Test C pre/postemergence; conditions: for Plant response rating (scale of 0 to 100), Soybean / Soybean plant response rating: Postemergence; for Soybean plant response rating: scale 0 to 100 (0 no effect, 100 complete control); for Plant response rating, Soybean: Preemergence
In short: as §1

[7] = test system: johnsongrass (Sorghum halepense); assay: Test C pre/postemergence; conditions: for Plant response rating, Johnsongrass: Preemergence
In short: as §1

[8] = test system: Surinam grass (Brachiaria decumbens); assay: Test C pre/postemergence; conditions: for Plant response rating, Surinam Grass: Preemergence
In short: as §1

[9] = test system: kochia (Kochia scoparia); assay: Test C pre/postemergence; conditions: for Plant response rating (scale of 0 to 100), Kochia / Kochia plant response rating: Postemergence; for Kochia plant response rating: scale 0 to 100 (0 no effect, 100 complete control); for Plant response rating, Kochia: Preemergence
In short: as §1

[10] = test system: common ragweed (Ambrosia elatior); assay: Test C pre/postemergence; conditions: for Plant response rating (scale of 0 to 100), Ragweed / Ragweed plant response rating: Postemergence; for Ragweed plant response rating: scale 0 to 100 (0 no effect, 100 complete control); for Plant response rating, Ragweed: Preemergence
In short: as §1

[11] = test system: giant foxtail (Setaria faberii); assay: Test C pre/postemergence; conditions: for Plant response rating (scale of 0 to 100), Foxtail, Giant / Foxtail, Giant plant response rating: Postemergence; for Foxtail, Giant plant response rating: scale 0 to 100 (0 no effect, 100 complete control); for Plant response rating, Foxtail, Giant: Preemergence
In short: as §1

[12] = test system: pigweed (Amaranthus retroflexus); assay: Test C pre/postemergence; conditions: for Plant response rating (scale of 0 to 100), Pigweed / Pigweed plant response rating: Postemergence; for Pigweed plant response rating: scale 0 to 100 (0 no effect, 100 complete control); for Plant response rating, Pigweed: Preemergence
In short: as §1

[13] = 16 g ai/ha, scale 0 to 100, 0 no effect, 100 complete control
[14] = 31 g ai/ha, scale 0 to 100, 0 no effect, 100 complete control
[15] = 62 g ai/ha, scale 0 to 100, 0 no effect, 100 complete control
[16] = Postemergence, 62 g ai/ha, scale 0 to 100 (0 no effect, 100 complete control)

COC(=O)c1nc(C2CC2)nc(N=CN(C)C)c1Br [Compound 19]
75: Soybean plant response rating ([6]; 62 g ai/ha) | Soybean plant response rating ([6]; 125 g ai/ha)
55: Plant response rating (scale of 0 to 100), Morningglory ([4]; Postemergence, 31 g ai/ha) | Plant response rating (scale of 0 to 100), Soybean ([6]; 31 g ai/ha) | Plant response rating, Johnsongrass ([7]; 125 g ai/ha, scale 0 to 100) | Plant response rating, Ragweed [10, 13] | Plant response rating, Ragweed [10, 14] | Foxtail, Giant plant response rating ([11]; 125 g ai/ha)
80: Morningglory plant response rating ([4]; Postemergence, 62 g ai/ha) | Plant response rating (scale of 0 to 100), Kochia ([9]; 16 g ai/ha) | Ragweed plant response rating ([10]; 125 g ai/ha) | Plant response rating, Ragweed ([10]; 125 g ai/ha, scale 0 to 100)
45: Plant response rating (scale of 0 to 100), Soybean ([6]; 16 g ai/ha) | Surinam Grass plant response rating [8, 16] | Plant response rating, Pigweed [12, 14]
90: Plant response rating, Sunflower ([3]; 125 g ai/ha, scale 0 to 100) | Plant response rating, Morningglory [4, 15] | Plant response rating, Morningglory ([4]; 125 g ai/ha, scale 0 to 100) | Plant response rating, Soybean ([6]; 125 g ai/ha, scale 0 to 100) | Plant response rating (scale of 0 to 100), Kochia ([9]; 31 g ai/ha) | Kochia plant response rating ([9]; 62 g ai/ha) | Kochia plant response rating ([9]; 125 g ai/ha) | Plant response rating, Kochia ([9]; 125 g ai/ha, scale 0 to 100)
10: Plant response rating, Sunflower [3, 13] | Plant response rating, Morningglory [4, 13] | Plant response rating, Morningglory [4, 14] | Plant response rating, Surinam Grass ([8]; 125 g ai/ha, scale 0 to 100)
5: Chickweed plant response rating ([1]; 62 g ai/ha, scale 0 to 100 (0 no effect, 100 complete control)) | Plant response rating, Chickweed ([1]; 125 g ai/ha, scale 0 to 100) | Plant response rating (scale of 0 to 100), Foxtail, Giant ([11]; 31 g ai/ha)
0: Plant response rating (scale of 0 to 100), Chickweed ([1]; 16 g ai/ha) | Plant response rating (scale of 0 to 100), Chickweed ([1]; 31 g ai/ha) | Plant response rating (scale of 0 to 100), Nutsedge, Yellow ([2]; 16 g ai/ha) | Plant response rating (scale of 0 to 100), Nutsedge, Yellow ([2]; 31 g ai/ha) | Nutsedge, Yellow plant response rating ([2]; 62 g ai/ha) | Nutsedge, Yellow plant response rating ([2]; 125 g ai/ha) | Plant response rating, Nutsedge, Yellow [2, 13] | Plant response rating, Nutsedge, Yellow [2, 14] | Plant response rating, Nutsedge, Yellow [2, 15] | Plant response rating, Nutsedge, Yellow ([2]; 125 g ai/ha, scale 0 to 100) | Plant response rating (scale of 0 to 100), Cupgrass, Woolly ([5]; 16 g ai/ha) | Plant response rating, Cupgrass, Woolly [5, 13] | Plant response rating, Cupgrass, Woolly [5, 14] | Plant response rating, Cupgrass, Woolly [5, 15] | Plant response rating, Cupgrass, Woolly ([5]; 125 g ai/ha, scale 0 to 100) | Plant response rating, Soybean [6, 13] | Plant response rating (scale of 0 to 100), Johnsongrass ([7]; Postemergence, 16 g ai/ha) | Plant response rating (scale of 0 to 100), Johnsongrass ([7]; Postemergence, 31 g ai/ha) | Johnsongrass plant response rating [7, 16] | Plant response rating, Johnsongrass [7, 13] | Plant response rating, Johnsongrass [7, 14] | Plant response rating (scale of 0 to 100), Surinam Grass ([8]; Postemergence, 16 g ai/ha) | Plant response rating, Surinam Grass [8, 13] | Plant response rating, Surinam Grass [8, 15] | Plant response rating (scale of 0 to 100), Foxtail, Giant ([11]; 16 g ai/ha) | Plant response rating, Foxtail, Giant [11, 13] | Plant response rating, Foxtail, Giant [11, 14] | Plant response rating, Foxtail, Giant [11, 15] | Plant response rating, Foxtail, Giant ([11]; 125 g ai/ha, scale 0 to 100)
25: Plant response rating, Sunflower [3, 14] | Plant response rating (scale of 0 to 100), Cupgrass, Woolly ([5]; 31 g ai/ha) | Plant response rating, Soybean [6, 14] | Plant response rating (scale of 0 to 100), Surinam Grass ([8]; Postemergence, 31 g ai/ha)
95: Plant response rating, Pigweed ([12]; 125 g ai/ha, scale 0 to 100)
85: Morningglory plant response rating ([4]; Postemergence, 125 g ai/ha) | Plant response rating, Soybean [6, 15] | Plant response rating, Kochia [9, 15]
65: Cupgrass, Woolly plant response rating ([5]; 62 g ai/ha) | Cupgrass, Woolly plant response rating ([5]; 125 g ai/ha) | Pigweed plant response rating ([12]; 62 g ai/ha) | Pigweed plant response rating ([12]; 125 g ai/ha)
50: Plant response rating (scale of 0 to 100), Pigweed ([12]; 16 g ai/ha) | Plant response rating (scale of 0 to 100), Pigweed ([12]; 31 g ai/ha)
35: Plant response rating, Johnsongrass [7, 15] | Plant response rating, Kochia [9, 13] | Plant response rating (scale of 0 to 100), Ragweed ([10]; 16 g ai/ha) | Plant response rating, Pigweed [12, 13]
40: Plant response rating (scale of 0 to 100), Ragweed ([10]; 31 g ai/ha) | Foxtail, Giant plant response rating ([11]; 62 g ai/ha)
70: Plant response rating, Sunflower [3, 15] | Ragweed plant response rating ([10]; 62 g ai/ha) | Plant response rating, Ragweed [10, 15] | Plant response rating, Pigweed [12, 15]
